{"source": "patent US20240001012A1", "about": "“SOLUTIONS FOR […] OF A DRUG AD[…] […] AND DOSING ALGORITHM THEREFOR” (DREXEL UNIVERSITY, priority 2017, published 2024)", "key": {"[1]": {"assay": "Stability of vancomycin with components of the CRRT solution", "type": "physicochemical", "conditions": "in CRRT solution", "source_text": "The CRRT or like solution may be prepared at the time it is needed following current standard operating procedures for sterile product compounding or as discussed below in greater detail. The amount of vancomycin, for instance, to be added to the solution is described below in greater detail. Accordingly, this mixed solution is provided for being infused for the duration it is prescribed for CRRT. […] Other drugs may be stable for less or more time."}, "[2]": {"assay": "Serum vancomycin plateau level in patients receiving continuous infusion vancomycin mixed in the CRRT solution", "type": "in vivo, human", "method": "According to embodiments disclosed herein, drug concentrations in the solution(s) are adjusted in vitro based on an initial serum plateau level, and subsequent levels are thereafter obtained based on these changes. […] See step 70.\nIn this study, CRRT was performed using a Prismaflex System machine (Gambro, Lakewood, CO). The mode of dialysis, continuous venovenous hemofiltration or hemodiafiltration was dictated by an attending nephrologist prescribing the dialysis. The\n(§1) Prismaflex machine was initially primed with two 1-L bags of normal saline and 5,000 units of heparin. The machine was then primed with normal saline, 5% albumin, or a blood exchange (blood is transfused to the patient as the prime is wasted) depending on the percent extracorporeal volume of the patient with a dialysis solution utilizing HF1000, AN69 dialysis filters. Commercially available dialysate and replacement solutions were used for all CRRT patients. The CRRT circuit and solutions were inspected and observed for adverse events, such as specifically for precipitation and clotting. The CRRT solution(s) and circuit were visually inspected after addition of the CRRT circuit prior to the final connection to the patient.\nThe median eGFR on ICU admission was 39.9 mL/min/1.73 m 2 (25th to 75th IQR, 25.8-53.4 mL/min/1.73 m 2) compared with a median eGFR of 26.7 mL/min/1.73 m 2 (25th to 75th IQR, 18.8-42.7 mL/min/1.73 m 2) with the initiation of CRRT."}, "Streptococcus pneumoniae": {"tested_on": "Streptococcus pneumoniae", "assay": "Follow-up cultures in patient 4 on vancomycin via CRRT", "type": "in vivo, human", "conditions": "vancomycin continued 2 days", "source_text": "(§2) Only two patients, patients 4 and 9, had cultures that were positive for a gram-positive organism. […] Subsequent cultures obtained from the blood and the respiratory system were negative. The isolate of Streptococcus pneumoniae was penicillin sensitive, and the patient was changed to ampicillin for the remainder of the treatment course."}, "[3]": {"assay": "Inspection of CRRT solution(s) and circuit for precipitation and clotting after mixing vancomycin", "conditions": "on mixing the vancomycin in the CRRT solution", "source_text": "Upon initiation of CRRT, the CRRT circuit may be inspected and evaluated on an hourly basis according to current standards of care. A part of the hourly standard of care inspection may involve inspection of the CRRT solution for precipitation and crystallization. This assessment should continue for the period of time the patient is receiving CRRT and vancomycin or other antibiotics is mixed in the CRRT solution.\nas §1"}, "[4]": {"tested_on": "methicillin-sensitive Staphylococcus aureus", "assay": "Follow-up cultures in patient 9 on vancomycin via CRRT", "type": "in vivo, human", "conditions": "day 6 of vancomycin therapy, blood culture also negative", "source_text": "as §2"}, "[5]": {"conditions": "escalation in CRRT intensity from hemofiltration to hemodiafiltration; Joy et al. 1998; cited from earlier work"}}}
{"smiles": "CN[C@H](CC(C)C)C(=O)N[C@H]1C(=O)N[C@@H](CC(N)=O)C(=O)N[C@H]2C(=O)N[C@H]3C(=O)N[C@H](C(=O)N[C@H](C(=O)O)c4cc(O)cc(O)c4-c4cc3ccc4O)[C@H](O)c3ccc(c(Cl)c3)Oc3cc2cc(c3O[C@@H]2O[C@H](CO)[C@@H](O)[C@H](O)[C@H]2O[C@H]2C[C@](C)(N)[C@H](O)[C@H](C)O2)Oc2ccc(cc2Cl)[C@H]1O", "note": "[Vancomycin, vancomycin]", "values": [{"measurement": "stable with components of the CRRT solution", "setting": "[1]", "result": "at least 96 hours"}, {"measurement": "median (25th to 75th IQR) vancomycin serum plateau concentration", "setting": "[2]; 11 patients, median solution concentration 25 mg/L", "result": "21.8 (20.9-25)"}, {"measurement": "Vancomycin Level, IQR, 25", "setting": "[2]; all levels of 11 patients", "result": 20.9, "unit": "µg/mL"}, {"measurement": "Vancomycin Level, IQR, 75", "setting": "[2]; all levels of 11 patients", "result": 25, "unit": "µg/mL"}, {"measurement": "Vancomycin Level, Min", "setting": "[2]; all levels of 11 patients", "result": 12.9, "unit": "µg/mL"}, {"measurement": "Vancomycin Level, Mean", "setting": "[2]; all levels of 11 patients, mean CRRT solution concentration 26.5 μg/mL", "result": 22.3, "unit": "µg/mL"}, {"measurement": "Vancomycin Level, Median", "setting": "[2]; all levels of 11 patients, median CRRT solution concentration 25 μg/mL", "result": 21.8, "unit": "µg/mL"}, {"measurement": "attainment of therapeutic vancomycin serum plateau levels", "setting": "[2]; all patients, regardless of CRRT modality, dose and flow rate", "result": "all patients achieved therapeutic vancomycin serum plateau levels"}, {"measurement": "concentration at 8 h", "setting": "[2]; human, serum, other: continuous infusion mixed in the CRRT solution, the one patient below 15 mg/L at 8 hours", "result": 12900, "unit": "ng/mL"}, {"measurement": "therapeutic serum level after adjustment of the CRRT solution concentration", "setting": "[2]; same patient, within 16 hours of starting CRRT", "result": 23.5, "unit": "mg/L"}, {"measurement": "patients achieving a therapeutic serum vancomycin level within 8 hours", "setting": "[2]; ten of eleven patients, within 8 hours of starting mixing vancomycin into the CRRT solution, target 15-30 mg/L", "result": 91, "unit": "%"}, {"measurement": "subsequent cultures from blood and respiratory system", "setting": "Streptococcus pneumoniae", "result": "negative"}, {"measurement": "adverse events regarding precipitation of vancomycin with CRRT solution(s) or circuit", "setting": "[3]", "result": "no adverse events were observed"}, {"measurement": "repeat respiratory culture", "setting": "[4]", "result": "negative"}, {"measurement": "increase in vancomycin clearance", "setting": "[5]", "result": "greater than or equal to 30%"}]}
